Counter-ions that a name gives are not always drawn.
System: MTT (mouse pheochromocytoma)
Assay: IC50 of cell viability (ATP content)
Conditions: (24 or 48 h)
How it was run: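 Library compounds were tested at 8 final concentrations (0.5 nM to 46 µM) on MTT mouse pheochromocytoma cells for 24 or 48 hrs, with readout by CellTiter-Glo ATP luminescence. Signals were normalised with positive-control wells at 100% and DMSO wells at 0%. IC50 values were obtained by a four-parameter logistic fit.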

| IC50 of cell viability [µM] | Compound |
| --- | --- |
| > 46 | COC(=O)CCc1ccc(OCC(O)CNC(C)C)cc1 (configuration not stated) [Esmolol hydrochloride] |
| > 46 | CCCCCCC(=O)O[C@@H]1CC[C@H]2[C@@H]3CCc4cc(O)ccc4[C@H]3CC[C@]12C [Estradiol enanthate] |
| > 46 | C[C@]12CC[C@H]3c4ccc(O)cc4CC[C@@H]3[C@H]1CC[C@@H]2OP(=O)(O)O [Estradiol phosphate] |
| > 46 | C[C@@]12CC[C@@H]3c4ccc(O[S+](=O)([O-])O)cc4CC[C@H]3[C@H]1CCC2=O [Estropipate] |
| > 46 | CCOC(=O)c1cnc2c(cnn2CC)c1NN=C(C)C.Cl [Etazolate hydrochloride] |
| > 46 | CCN(CC)[S+](=O)([O-])c1ccc(C(=O)O)cc1 [Etebenecid] |
| > 46 | C=C(CC)C(=O)c1ccc(OCC(=O)O)c(Cl)c1Cl [Ethacrynic acid] |
| > 46 | CC[C@H](CO)NCCN[C@@H](CC)CO [Ethambutol dihydrochloride] |
| > 46 | CCN(CC)C(=O)c1ccc(O)c(OC)c1 [Ethamivan] |
| > 46 | NCCO [Ethanolamine] |
| > 46 | CC(=O)c1ccc(OCC(=O)N2CCCCC2)cc1 [Ethanone, 2-(4-acetylphenoxy)-1-(1-piperidinyl)-] |
| > 46 | CCC1Nc2cc(Cl)c([S+](N)(=O)[O-])cc2[S+](=O)([O-])N1 (configuration not stated) [Ethiazide] |
| > 46 | CCc1cc(C(N)=S)ccn1 [Ethionamide] |
| > 46 | CCN(CC)[C@@H](C)CN1c2ccccc2Sc2ccccc21 [Ethopropazine hydrochloride] |
| > 46 | CC[C@]1(C)CC(=O)NC1=O [Ethosuximide] |
| > 46 | CCN1C(=O)N[C@@H](c2ccccc2)C1=O [Ethotoin] |
| > 46 | CCOC1=CC\2=C(NC(C)(C)\C=C2C)C=C1 [Ethoxyquin] |
| > 46 | CCOC(C)=O [Ethyl acetate] |
| > 46 | CCOC(=O)c1ccccc1O [Ethyl salicylate] |
| > 46 | NCCN [Ethylenediamine] |
| > 46 | CCOC(=O)c1ccc(O)cc1 [Ethylparaben] |
| > 46 | C#CC1(OC(C)=O)CCC2C3CCC4=CC(OC(C)=O)CCC4C3CCC21C (configuration not stated) [Ethynodiol Diacetate] |
| > 46 | CCc1cc(Cl)c(OC)c(C(=O)NC[C@@H]2CCCN2CC)c1O [Eticlopride hydrochloride] |

| IC50 of cell viability [µM] | Compound |
| --- | --- |
| > 46 | CCCN(CC)[C@@H](CC)C(=O)Nc1c(C)cccc1C [Etidocaine] |
| > 46 | CCc1cccc(CC)c1NC(=O)CN(CC(=O)O)CC(=O)O [Etifenin] |
| > 46 | CCOc1ccc(NC(=S)Nc2ccc(OCC)cc2)cc1 [Etocarlida] |
| > 46 | CCOC(=O)C(\C#N)=C(/C1=CC=CC=C1)C2=CC=CC=C2 [Etocrylene] |
| > 46 | CCc1cccc2c3c([nH]c12)[C@](CC)(CC(=O)O)OCC3 [Etodolac] |
| > 46 | O=C(OCCOCCO)c1ccccc1Nc1cccc(C(F)(F)F)c1 [Etofenamate] |
| > 46 | COc1cc([C@H]2c3cc4c(cc3[C@@H](O[C@@H]3O[C@H]5CO[C@@H](C)O[C@@H]5[C@@H](O)[C@H]3O)[C@@H]3COC(=O)[C@H]23)OCO4)cc(OC)c1O [Etoposide] |
| > 46 | CC12CCC(CC1)C(C)(C)O2 [Eucalyptol] |
| > 46 | C[C@@H]1C[C@@H](OC(=O)[C@@H](O)c2ccccc2)CC(C)(C)N1C [Eucatropine hydrochloride] |
| > 46 | C=CCc1ccc(O)c(OC)c1 [Eugenol] |
| > 46 | CC(=O)OCC(CCn1cnc2cnc(N)nc21)COC(C)=O [FAMCICLOVIR] |
| > 46 | NC(N)=Nc1nc(CSCC/C(N)=N/[S+](N)(=O)[O-])cs1 [FAMOTIDINE] |
| > 46 | O=[S+]1([O-])c2cccc3cccc(c23)N1CCCN1CCN(c2ccc(F)cc2)CC1 [FANANSERINUM] |
| > 46 | O=c1[nH]c2cc(C(F)(F)F)c(N3CCOCC3)cc2n(CP(=O)(O)O)c1=O [FANAPANELUM] |
| > 46 | O=C1CC[C@H](C(=O)N2CCCCC2)N1 [FASORACETAM HYDRATE] |
| > 46 | NC(=O)OCC(COC(N)=O)c1ccccc1 [FELBAMATE] |
| > 46 | CCOC(=O)Cc1ccc(-c2ccccc2)cc1 [FELBINAC ETHYL] |
| > 46 | NCCCCC(NC(=O)C1CCCN1C(=O)C1CSSCC(N)C(=O)NC(Cc2ccccc2)C(=O)NC(Cc2ccccc2)C(=O)NC(CCC(N)=O)C(=O)NC(CC(N)=O)C(=O)N1)C(=O)NCC(N)=O (configuration not stated) [FELYPRESSIN] |
| > 46 | Nc1ccc(C(=O)Oc2ccccc2)c(O)c1 [FENAMISAL] |
| > 46 | CC12CCC(C1)C(C)(C)C2=O (configuration not stated) [FENCHONE] |
| > 46 | CCCC[C@H](O)c1ccccc1 [FENIPENTOL] |
| > 46 | Cn1cc(O)nc1NC(=O)Nc1cccc(Cl)c1 [FENOBAMUM] |
| > 46 | Oc1ccc(C2CNCCc3c2cc(O)c(O)c3Cl)cc1 (configuration not stated) [FENOLDOPAM] |

| IC50 of cell viability [µM] | Compound |
| --- | --- |
| > 46 | Cl.O=C1NCC2(CCN(CCc3ccccc3)CC2)O1 [FENSPIRIDE HYDROCHLORIDE] |
| > 46 | Cc1ccc(/C=N/n2c(-c3ccccc3)csc2=S)cc1 [FEZATIONE] |
| > 46 | NC(=O)C1CC2(NC(=O)NC2=O)c2cc(F)ccc2O1 (configuration not stated) [FIDARESTAT] |
| > 46 | Cl.O=C(COc1ccc(Cl)cc1)N1CCN(Cc2ccc3c(c2)OCO3)CC1 [FIPEXIDE HYDROCHLORIDE] |
| > 46 | O=C(NCC1CCCCN1)c1cc(OCC(F)(F)F)ccc1OCC(F)(F)F (configuration not stated) [FLECAINIDE] |
| > 46 | CN1CCN(c2c(F)cc3c(=O)c(C(=O)O)cn(CCF)c3c2F)CC1 [FLEROXACIN] |
| > 46 | CCC(=O)c1c(O)cc(O)cc1O [FLOPROPIONE] |
| > 46 | COc1ccccc1N1CCN(CCCC(=O)c2ccc(F)cc2)CC1 [FLUANISONUM] |
| > 46 | Cc1onc(-c2c(F)cccc2Cl)c1C(=O)NC1C(=O)N2C1SC(C)(C)C2C(=O)[O-].O.[Na+] (configuration not stated) [FLUCLOXACILLIN MAGNESIUM] |
| > 46 | OC(Cn1cncn1)(Cn1cncn1)c1ccc(F)cc1F [FLUCONAZOLE] |
| > 46 | CCOC(=O)c1ncn2c1CN(C)C(=O)c1cc(F)ccc1-2 [FLUMAZENIL] |
| > 46 | CC1CCC2=C3N1\C=C(C(O)=O)/C(=O)C3=CC(=C2)F (configuration not stated) [FLUMEQUINE] |
| > 46 | Fc1ccc(C(c2ccc(F)cc2)N2CCN(C/C=C/c3ccccc3)CC2)cc1 [FLUNARIZINE] |
| > 46 | CC12C=CC(=O)C=C1[C@@H](F)CC1C2C(O)CC2(C)C1CC[C@]2(O)C(=O)CO (some centres not stated) [FLUPREDNISOLONE] |
| > 46 | FC(F)(F)COCC(F)(F)F [FLUROTYLUM] |
| > 46 | c1ccc(OCc2ccc(CCCN3CCOCC3)cc2)cc1 [FOMOCAINUM] |
| > 46 | CC(C)CN(C[C@@H](OP(=O)([O-])[O-])[C@H](Cc1ccccc1)NC(=O)O[C@@H]1CCOC1)[S+](=O)([O-])c1ccc(N)cc1 [FOSAMPRENAVIR CALCIUM] |
| > 46 | O=C([O-])P(=O)([O-])[O-].[Na+].[Na+].[Na+] [FOSCARNET SODIUM] |
| > 46 | CC1OC1P(=O)([O-])[O-].[Ca+2] (configuration not stated) [FOSFOMYCIN] |
| > 46 | O=C(O)c1ccccc1OP(=O)(O)O [FOSFOSAL] |
| > 46 | O=P(O)(O)OC[C@H]1O[C@](O)(COP(=O)(O)O)[C@@H](O)[C@@H]1O [FOSFRUCTOSUM] |
| > 46 | CCC(=O)O[C@@H](OP(=O)(CCCCc1ccccc1)CC(=O)N1C[C@H](C2CCCCC2)C[C@H]1C(=O)[O-])C(C)C (some centres not stated) [FOSINOPRIL SODIUM] |
| > 46 | N[C@@H](CSCCCO)C(=O)O [FUDOSTEINE] |

| Compound | IC50 of cell viability [µM] |
| --- | --- |
| CN1CCN(C(=O)O[C@H]2c3nccnc3C(=O)N2c2ccc(Cl)cn2)CC1 [Eszopiclone] | > 46 |
| CCNCC.O=[S+]([O-])(O)c1cc(O)ccc1O [Ethamsylate] | > 46 |
| CC[n+]1c(-c2ccccc2)c2cc(N)ccc2c2ccc(N)cc21 [Ethidium bromide] | > 46 |
| CCOC(=O)C1(c2ccccc2)CCCN(C)CC1 (configuration not stated) [Ethoheptazine hydrochloride] | > 46 |
| CCCSP(=O)(OCC)SCCC [Ethoprop] | > 46 |
| OCCOc1ccccc1 [Ethylene glycol monophenyl ether] | > 46 |
| CCOc1cc(C=O)ccc1O [Ethylvanillin] | > 46 |
| CCNC[C@H](O)c1cccc(O)c1 [Etilefrine hydrochloride] | > 46 |
| CCC(C(N)=O)N1CCCC1=O (configuration not stated) [Etiracetam] | > 46 |
| CCOC(=O)c1cncn1[C@@H](C)c1ccccc1 [Etomidate] | > 46 |
| COP(=S)(OC)Oc1ccc([S+](=O)([O-])N(C)C)cc1 [FAMPHUR] | > 46 |
| C[N+]1(CCC(C(N)=O)(c2ccccc2)c2ccccc2)CCCCC1 [FENPIVERINII BROMIDUM] | > 46 |
| C[C@]12CCC(=O)C(=O)C1CC[C@@H]1[C@@H]2CC[C@]2(C)C(=O)CC[C@@H]12 (some centres not stated) [FORMESTANUM] | > 46 |
